Literature values, collected in US20100331966A1, “BIOCORRODIBLE IMPLANT HAVING AN ACTIVE COATING” (priority 2009, published 2010).

Test system: hyperlipidemic rabbits
[1] = hyperlipidemic rabbits, repeated administration

Row | Substance | atheromatous vascular plaque [1] | blood cholesterol [1] | fibrin content [1] | heparin content in the plasma [1] | vascular permeability in the tissue [1] | plaque-loosening effect (rabbit, in vivo)
1 | hyaluronidase | significant decrease | lowering | lowering | increase | increased | –
2 | hyaluronate lyase [bacteria hyaluronate lyase] | – | – | – | – | – | confirmed
